Results published in ChEMBL document CHEMBL1127868, “Synthesis and In Vitro evaluation of fused ring heterocyle-containing angiotensin II antagonists” (Bioorg Med Chem Lett, 1994).

Tested on: Rattus norvegicus
Test: Dose (po) required to normalize blood pressure in renal artery-ligated rats
Assay type: functional
Conditions: not given

Row | SMILES | Dose [mg/kg]
1 | CCCN(Cc1ccc(-c2ccccc2-c2nn[nH]n2)cc1)c1ncccc1C(=O)O | 0.3

Biological target: T1, Type-1 angiotensin II receptor (Oryctolagus cuniculus, UniProt P34976)
T1 sequence (P34976 whole entry): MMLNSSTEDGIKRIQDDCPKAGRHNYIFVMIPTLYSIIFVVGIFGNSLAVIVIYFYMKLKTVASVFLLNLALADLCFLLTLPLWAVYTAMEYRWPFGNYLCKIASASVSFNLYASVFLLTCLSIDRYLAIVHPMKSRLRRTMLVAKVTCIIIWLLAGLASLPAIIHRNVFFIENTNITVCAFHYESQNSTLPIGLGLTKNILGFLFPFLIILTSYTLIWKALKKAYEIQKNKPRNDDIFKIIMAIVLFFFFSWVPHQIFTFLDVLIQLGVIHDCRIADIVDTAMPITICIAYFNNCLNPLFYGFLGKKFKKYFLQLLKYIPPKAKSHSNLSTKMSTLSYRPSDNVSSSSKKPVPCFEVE
Test: pA2 value determined in vitro against angiotensin II receptor, type 1 using rabbit aortic rings
Conditions: read-out: pA2 (converted)

Row | Kb [nM] | SMILES
2 | 9.33 | CCCCN(Cc1ccc(-c2ccccc2-c2nn[nH]n2)cc1)c1ncnc2c1nc(C)n2C
3 | 72.4 | CCCCN(Cc1ccc(-c2ccccc2-c2nn[nH]n2)cc1)c1ncnc2c1nc(C#N)n2C
4 | > 100 | CCCCN(Cc1ccc(-c2ccccc2-c2nn[nH]n2)cc1)c1ncnc2c1nc(S(C)(=O)=O)n2C
5 | 2.63 | CCc1nc(NCc2ccc(-c3ccccc3-c3nn[nH]n3)cc2)c2cc(OC)ccc2n1
6 | 8.32 | CCCCN(Cc1ccc(-c2ccccc2-c2nn[nH]n2)cc1)c1ncnc2c1ncn2C
7 | 29.5 | CCCCN(Cc1ccc(-c2ccccc2-c2nn[nH]n2)cc1)c1ncnc2c1nc(O)n2C
8 | 10.7 | CCCCN(Cc1ccc(-c2ccccc2-c2nn[nH]n2)cc1)c1ncnc2c1nnn2C
9 | 0.0501 | CCCN(Cc1ccc(-c2ccccc2-c2nn[nH]n2)cc1)c1ncccc1C(=O)O
10 | 87.1 | CCCCN(Cc1ccc(-c2ccccc2-c2nn[nH]n2)cc1)c1ncnc2ccc(O)cc12
11 | > 100 | CCCN(Cc1ccc(-c2ccccc2-c2nnn[nH]2)cc1)c1ncnc2cccc(C(=O)OC)c12
12 | 97.7 | CCCN(Cc1ccc(-c2ccccc2-c2nn[nH]n2)cc1)c1ncnc2oc(C)nc12
13 | 35.5 | CCCCN(Cc1ccc(-c2ccccc2-c2nnn[nH]2)cc1)c1ncnc2cc(C(=O)O)ccc12
14 | 6.76 | CCCCN(Cc1ccc(-c2ccccc2-c2nnn[nH]2)cc1)c1ncnc2nc[nH]c12
15 | 12 | CCCN(Cc1ccc(-c2ccccc2-c2nnn[nH]2)cc1)c1ncnc2[nH]cnc12
16 | 7.24 | CCCN(Cc1ccc(-c2ccccc2-c2nnn[nH]2)cc1)c1ncnc2c1ncn2CC(=O)O
17 | 115 | CCCCN(Cc1ccc(-c2ccccc2-c2nnn[nH]2)cc1)c1ncnc2nccnc12
18 | 933 | CCCN(Cc1ccc(-c2ccccc2-c2nn[nH]n2)cc1)c1ncnc2ncn(C)c12
19 | 2.95 | CCc1nc(NCc2ccc(-c3ccccc3-c3nn[nH]n3)cc2)c2ccccc2n1
20 | 339 | CCCN(Cc1ccc(-c2ccccc2-c2nn[nH]n2)cc1)c1[nH]cnc2nncc1-2
21 | > 100 | CCCN(Cc1ccc(-c2ccccc2-c2nn[nH]n2)cc1)c1ncnc2cccc(OC)c12

Row | Kb [nM] | SMILES
22 | > 100 | CCCCN(Cc1ccc(-c2ccccc2-c2nnn[nH]2)cc1)c1ncnc2c1nc(C(N)=O)n2C
23 | 6.46 | CCCCN(Cc1ccc(-c2ccccc2-c2nn[nH]n2)cc1)c1ncnc2ccc(C(=O)O)nc12
24 | 107 | CCCCN(Cc1ccc(-c2ccccc2-c2nn[nH]n2)cc1)c1ncnc2ccc(C(=O)OC)cc12
25 | 151 | CCCN(Cc1ccc(-c2ccccc2-c2nn[nH]n2)cc1)c1ncnc2c1ncn2Cc1ccccc1
26 | 0.117 | CCCN(Cc1ccc(-c2ccccc2-c2nn[nH]n2)cc1)c1ncncc1C(=O)O
27 | 5.13 | CCc1nc(NCc2ccc(-c3ccccc3-c3nnn[nH]3)cc2)c2ncn(C)c2n1
28 | 47.9 | CCc1nc(N(C)Cc2ccc(-c3ccccc3-c3nn[nH]n3)cc2)c2cc(OC)ccc2n1
29 | 138 | CCc1nc(NCc2ccc(-c3ccccc3-c3nn[nH]n3)cc2)c2c[nH]nc2n1
30 | 2.57 | CCc1nc(NCc2ccc(-c3ccccc3-c3nn[nH]n3)cc2)c2cc(C(=O)O)ccc2n1
31 | 9.55 | CCCCN(Cc1ccc(-c2ccccc2-c2nnn[nH]2)cc1)c1ncnc2ccc(C(=O)O)cc12
32 | 776 | CCCCN(Cc1ccc(-c2ccccc2-c2nnn[nH]2)cc1)c1ncnc2cccnc12
33 | 47.9 | CCCCN(Cc1ccc(-c2ccccc2-c2nnn[nH]2)cc1)c1ncnc2ccc(OC)cc12
34 | 74.1 | CCCN(Cc1ccc(-c2ccccc2-c2nnn[nH]2)cc1)c1ncnc2ncn(CC(=O)O)c12
35 | 30.2 | CCCCN(Cc1ccc(-c2ccccc2-c2nnn[nH]2)cc1)c1ncnc2c1nc(CC)n2C
36 | 8.51 | CCc1nc(NCc2ccc(-c3ccccc3-c3nnn[nH]3)cc2)c2c(OC)cccc2n1
37 | > 100 | CCCCN(Cc1ccc(-c2ccccc2-c2nnn[nH]2)cc1)c1ncnc2c1nc(-c1ccccc1)n2C
38 | 41.7 | CCCCN(Cc1ccc(-c2ccccc2-c2nn[nH]n2)cc1)c1ncnc2c1nc([S+](C)[O-])n2C (stereo not given)
39 | 7.76 | CCCCN(Cc1ccc(-c2ccccc2-c2nn[nH]n2)cc1)c1[nH]cnc2nc(C)nc1-2
40 | > 100 | CCCN(Cc1ccc(-c2ccccc2-c2nnn[nH]2)cc1)c1ncnc2cccc(C(=O)O)c12
